Reference: ChEMBL document CHEMBL1150821, “A new metabolite from the marine bacterium Vibrio angustum S14” (2001)
The source made the active and inactive calls. No cut-off for these calls is given here.

Columns and labels:
Vibrio harveyi = assay: Induction of bioluminescence in Vibrio harveyi UNSW at 10 uM relative to control; assay type: functional
[1] = tested on: Agrobacterium tumefaciens; assay: Induction of acylated homoserine lactone system-mediated traI-lacZ reporter gene expression in Agrobacterium tumefaciens A136 at 2.5 ug; assay type: functional, organism-based

## CC(O)CC(=O)N[C@H]1CCOC1=O (some centres undefined)
Vibrio harveyi
  fold change (FC): 128

## CCCC(=O)CC(=O)N[C@H]1CCOC1=O
[1]
  Activity: Active

## CCCCOC(OCC(C)C)C(C)(C)O (centres undefined)
[1]
  Activity: Active
Vibrio harveyi
  fold change (FC): 32
